The subject of one test is K562 tumor cells. As to the kind of experiment: KOR assay, optical density versus time of cell cultures (FIG. 13). The class given is cell-based. The source says: Referring again to FIG. 6, and in the preferred embodiment depicted therein, a 96 well microtiter dish 310 is preferably used, and a light source 312 shines light through the samples disposed in such dish. The light source preferably provides light with a wavelength of from 200 about 800 nanometers. In one embodiment, the wavelength provided by the light source is from about 300 to about 700 nanometers. In yet another embodiment, the wavelength provided by the light source is from about 340 to about 660 nanometers.
Referring again to FIG. 6, and in the preferred embodiment depicted therein, the transmittance values measured by sensor 314 may be converted into optical density values in accordance with the formula: Dw=-log10Tw, wherein Tw is the measured transmittance of the sample measured at the specified wavelength (w) of the light used, and Dw is the optical density of the sample at the specified wavelength of the light used.
Thus, applicant's process allows one to measure the true optical density of a sample rather than mere absorbance. Once such optical density has been measured, one can then plot optical density versus time (as illustrated in the Figures of U.S. Pat. No. 6,258,553) and obtain a true rather than a distorted indication of cell apoptosis. […]

For test [1], the system named is epithelial carcinoma cells. Briefly: exposure of cells to radiolabeled lineage specific hormones (FIG. 19). It counts as cell-based. An excerpt:
FIG. 19 is a representation of the results of exposing cells to various lineage specific hormones. […] Reference may be had to U.S. Pat. No. 6,565,827 (radioimmunotherapy of lymphoma using anti-CD20 antibodies), U.S. Pat. No. 6,287,537 (radioimmunotherapy of lymphoma using anti-CD20 antibodies), U.S. Pat. No. 6,015,542 (radioimmunotherapy of lymphoma using anti-CD20 antibodies), and U.S. Pat. No. 5,843,398 (radioimmunotherapy of lymphoma using anti-CD 20 antibodies). The entire disclosure of these United States patents are hereby incorporated by reference into this specification. […] In another embodiment (see graph 1300) epithelial cells, 1310, and ovarian cancer cells, 1320, are exposed to radiolabeled estrogen. Over 90 percent of the ovarian cancer cells are killed upon exposure to the radiolabeled estrogen but less than 30 percent of the epithelial carcinoma cells are killed upon exposure.

Where a name gives a salt, the structure may show the parent alone.

For the compound `Cc1ccc(NC(=O)c2ccc(CN3CCN(C)CC3)cc2)cc1Nc1nccc(-c2cccnc2)n1` [imatinib mesylate], the “slope of optical density versus time relative to control slope” value with K562 tumor cells (K562 tumor cells derived from a patient with chronic myelogenous leukemia) is “dose-dependent decrease in slope”. In the test with K562 tumor cells (optical density versus time), the “apoptosis peak in the KOR assay” value is listed as “do not produce”.
For the compound “radiolabeled epithelial growth factor: radiolabeled ligand used to kill cells that possess receptors for the particular ligand (NSDSECPLSHDGYCLHDGVCMYIEALDKYACNCVVGYIGERCQYRDLKWWELR; Epidermal growth factor radiolabel; UniProt P01133 971-1023, looked up)”, the “epithelial carcinoma cells killed upon exposure” value in test [1] is recorded as “more than 50%”.

The values are drawn from patent US20080008999A1, “Process for detecting the existence of mesenchymal chrondrosarcoma” (priority 2004, published 2008).
